T1: RFT-1 (rft-1, Y47D7A.16) (Caenorhabditis elegans, UniProt Q3LFN0)
T1 construct: full-length 1,284 nt cDNA with corrected 3' end (differs from the older gene model) in pCI-neo; untagged; transient expression in human ARPE-19 cells; 11 predicted TM domains
T1 sequence (Q3LFN0 1-427): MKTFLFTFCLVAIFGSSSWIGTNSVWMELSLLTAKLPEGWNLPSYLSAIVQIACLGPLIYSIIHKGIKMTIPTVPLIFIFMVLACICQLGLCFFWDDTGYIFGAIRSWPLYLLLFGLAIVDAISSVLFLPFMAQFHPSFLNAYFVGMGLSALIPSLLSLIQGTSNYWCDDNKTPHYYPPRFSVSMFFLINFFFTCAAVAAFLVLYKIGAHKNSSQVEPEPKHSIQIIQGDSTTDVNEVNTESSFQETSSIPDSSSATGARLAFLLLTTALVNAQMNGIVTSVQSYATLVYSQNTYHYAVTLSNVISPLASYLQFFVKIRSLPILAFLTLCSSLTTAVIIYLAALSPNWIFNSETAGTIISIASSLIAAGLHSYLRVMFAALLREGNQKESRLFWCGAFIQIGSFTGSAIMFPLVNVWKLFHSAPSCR

T2: RFT-2 (rft-2, Y47D7A.14) (Caenorhabditis elegans, UniProt G4SDH4)
T2 construct: full-length cDNA in pCI-neo; untagged; transient expression in human ARPE-19 cells
T2 sequence (G4SDH4 1-476): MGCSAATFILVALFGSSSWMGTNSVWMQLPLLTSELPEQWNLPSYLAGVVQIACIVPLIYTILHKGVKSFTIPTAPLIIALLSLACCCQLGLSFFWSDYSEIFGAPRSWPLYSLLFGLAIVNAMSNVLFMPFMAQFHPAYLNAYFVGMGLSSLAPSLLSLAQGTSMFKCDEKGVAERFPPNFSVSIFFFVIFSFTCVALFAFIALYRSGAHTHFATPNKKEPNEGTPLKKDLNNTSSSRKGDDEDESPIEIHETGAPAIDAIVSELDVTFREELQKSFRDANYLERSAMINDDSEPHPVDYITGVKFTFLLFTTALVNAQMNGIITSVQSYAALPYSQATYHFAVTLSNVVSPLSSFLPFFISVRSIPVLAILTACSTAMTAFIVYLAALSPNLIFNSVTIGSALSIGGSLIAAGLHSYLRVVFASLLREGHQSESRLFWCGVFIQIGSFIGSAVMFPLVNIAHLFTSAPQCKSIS

B1: RFT-1 (rft-1, Y47D7A.16) (Caenorhabditis elegans) (protein)
chain: MKTFLFTFCLVAIFGSSSWIGTNSVWMELSLLTAKLPEGWNLPSYLSAIVQIACLGPLIYSIIHKGIKMTIPTVPLIFIFMVLACICQLGLCFFWDDTGYIFGAIRSWPLYLLLFGLAIVDAISSVLFLPFMAQFHPSFLNAYFVGMGLSALIPSLLSLIQGTSNYWCDDNKTPHYYPPRFSVSMFFLINFFFTCAAVAAFLVLYKIGAHKNSSQVEPEPKHSIQIIQGDSTTDVNEVNTESSFQETSSIPDSSSATGARLAFLLLTTALVNAQMNGIVTSVQSYATLVYSQNTYHYAVTLSNVISPLASYLQFFVKIRSLPILAFLTLCSSLTTAVIIYLAALSPNWIFNSETAGTIISIASSLIAAGLHSYLRVMFAALLREGNQKESRLFWCGAFIQIGSFTGSAIMFPLVNVWKLFHSAPSCR

Experiments:
[1] = target: T1, RFT-1 (rft-1, Y47D7A.16); assay: inhibition of [3H]riboflavin uptake, transfected ARPE-19 cells, empty-vector uptake subtracted; type: cell-based; settings: competition with [3H]riboflavin; 37°C, 5 min, Krebs-Ringer buffer
[2] = target: T2, RFT-2 (rft-2, Y47D7A.14); assay: [3H]riboflavin uptake, transfected ARPE-19 cells, empty-vector uptake subtracted; settings: 14 nM [3H]riboflavin, pH 5.5, 37°C, 5 min, Krebs-Ringer buffer; labelled compound
[3] = substrate: Cc1cc2nc3c(=O)[nH]c(=O)nc-3n(C[C@H](O)[C@H](O)[C@H](O)CO)c2cc1C; assay: cells, lysate or membranes; settings: 0.01–10 µM riboflavin, 37°C, 5 min, Krebs-Ringer buffer, labelled compound

| Molecule | inhibition of [3H]riboflavin uptake, transfected ARPE-19 cells, empty-vector upt [1] | other results |
| --- | --- | --- |
| Cc1cc2nc3[nH]c(=O)[nH]c(=O)c3nc2cc1C [lumichrome] | structural analogues lumichrome and lumiflavin significantly inhibited [^3H] riboflavin uptake |  |
| Cc1cc2nc3c(=O)[nH]c(=O)nc-3n(C)c2cc1C [lumiflavin] | structural analogues lumichrome and lumiflavin significantly inhibited [^3H] riboflavin uptake |  |
| Cc1cc2nc3c(=O)[nH]c(=O)nc-3n(C[C@H](O)[C@H](O)[C@H](O)CO)c2cc1C [riboflavin] |  | [3H]riboflavin uptake, transfected ARPE-19 cells, empty-vector uptake subtracted [2]: rft-2 transfected cells also had significantly higher riboflavin uptake compared to controls |
| B1 |  | Km [3]: 1.4 ± 0.5 µM |

— PMC3590142 (PLoS ONE, 2013)
